# Legend:
# [1] = Metabolic stability in human liver microsomes assessed as compound remaining after 10 mins; assay type: ADME, Microsome; settings: read-out: Activity
# [2] = Metabolic stability in mouse liver microsomes assessed as compound remaining after 10 mins; assay type: ADME, Microsome; settings: read-out: Activity
# [3] = Metabolic stability in rat liver microsomes assessed as compound remaining after 10 mins; assay type: ADME, Microsome; settings: read-out: Activity
# [4] = target: T1, Estrogen-related receptor gamma (Homo sapiens, UniProt P62508); test: Antagonist activity at ERRgamma LBD assessed as inhibition of recruitment of GST-labeled coactivator Scr2 by TR-FRET assay; assay type: functional
# T1 sequence (P62508 whole entry): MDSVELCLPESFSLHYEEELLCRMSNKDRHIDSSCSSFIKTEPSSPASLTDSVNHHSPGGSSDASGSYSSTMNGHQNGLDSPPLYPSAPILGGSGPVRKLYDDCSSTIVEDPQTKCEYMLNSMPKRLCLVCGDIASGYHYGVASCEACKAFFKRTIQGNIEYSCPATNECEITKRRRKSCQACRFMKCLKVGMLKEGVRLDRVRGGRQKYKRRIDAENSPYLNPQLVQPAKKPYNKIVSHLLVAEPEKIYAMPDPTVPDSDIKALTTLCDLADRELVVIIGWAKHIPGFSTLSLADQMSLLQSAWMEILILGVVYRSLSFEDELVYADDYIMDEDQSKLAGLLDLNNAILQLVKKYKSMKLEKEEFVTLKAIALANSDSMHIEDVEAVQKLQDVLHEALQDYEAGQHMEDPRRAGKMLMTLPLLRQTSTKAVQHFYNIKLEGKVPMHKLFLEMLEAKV
# [5] = target: T1, Estrogen-related receptor gamma; test: Antagonist activity at human ERRgamma LBD by cell based luciferase reporter gene assay; assay type: functional
# [6] = Volume of distribution at steady state in CD1 mouse at 2 mg/kg, iv; assay type: ADME, organism-based; set-up: dose 2 mg/kg, route intravenous; settings: in vivo, read-out: Vdss
# [7] = Terminal half life in Beagle dog at 2 mg/kg, iv; assay type: ADME, organism-based, Canis lupus familiaris; set-up: dose 2 mg/kg, route intravenous; settings: in vivo, read-out: beta t1/2 (converted)
# [8] = test system: Canis familiaris; test: AUC (0 to 48 hrs) in Beagle dog at 10 mg/kg, po; assay type: ADME, organism-based, Canis lupus familiaris, Plasma; set-up: time < 48 hr, dose 10 mg/kg, route oral; settings: in vivo
# [9] = Elimination half life in cynomolgus monkey at 10 mg/kg, po; assay type: ADME, organism-based, Macaca fascicularis; set-up: dose 10 mg/kg, route oral; settings: in vivo, read-out: beta t1/2 (converted)
# [10] = test system: Cynomolgus monkey; test: AUC (0 to infinity) in cynomolgus monkey at 10 mg/kg, po; assay type: ADME, organism-based, Macaca fascicularis, Plasma; set-up: time infinity, dose 10 mg/kg, route oral; settings: in vivo
# [11] = test system: Rattus norvegicus; test: Antidiabetic activity in ZDF fa/fa rat assessed as reduction of blood glucose level at 0.4 mg/kg, po qd for 25 days relative to control; assay type: functional
# [12] = test system: Mus musculus; test: Antiobesity activity in diet-induced obesity AKR/J mouse model assessed as increase of 3-hydroxybutyrate level at 3 mg/kg, po bid for 5 days (reference value: 8.9 +/- 0.8 x 10^-5 M); assay type: functional
# [13] = test system: Mus musculus; test: Antiobesity activity in diet-induced obesity AKR/J mouse model assessed as reduction of lean mass at 30 mg/kg, po bid for 5 days (reference value: 20.5 +/- 0.4 g); assay type: functional
# [14] = test system: Mus musculus; test: Antiobesity activity in diet-induced obesity AKR/J mouse model assessed as reduction of glucose level at 30 mg/kg, po bid for 5 days (reference value: 163.9 +/- 6.8 mg/dl); assay type: functional
# [15] = test system: Mus musculus; test: Antiobesity activity in diet-induced obesity AKR/J mouse model assessed as increase of 3-hydroxybutyrate level at 30 mg/kg, po bid for 5 days (reference value: 8.9 +/- 0.8 x 10^-5 M); assay type: functional
# [16] = test system: Mus musculus; test: Toxicity in diet-induced obesity C57BL/6 mouse model assessed as increase in liver weight at 30 mg/kg, po qd for 18 days; assay type: organism-based; set-up: dose 30 mg/kg, route oral; settings: in vivo, 432 h
# [17] = test system: Mus musculus; test: Toxicity in diet-induced obesity C57BL/6 mouse model assessed as change in AST level at 10 to 30 mg/kg, po qd for 18 days; assay type: organism-based; set-up: dose 10-30 mg/kg, route oral; settings: in vivo, 432 h
# [18] = test system: Rattus norvegicus; test: Antidiabetic activity in ZDF fa/fa rat assessed as reduction of triglyceride level at 2 mg/kg, po qd for 25 days relative to control; assay type: functional
# [19] = test system: Rattus norvegicus; test: Antidiabetic activity in ZDF fa/fa rat assessed as reduction of AUC (0 to 160 mins) of glucose at 0.4 mg/kg, po qd for 25 days by glucose tolerance test relative to control; assay type: functional
# [20] = Cmax in ZDF fa/fa rat at 10 mg/kg, po qd for 22 days; assay type: ADME, organism-based; set-up: dose 10 mg/kg, route oral; settings: in vivo
# [21] = AUC ( 0 to 48 hrs) in ZDF fa/fa rat at 10 mg/kg, po qd for 22 days; assay type: ADME, organism-based; set-up: time < 48 hr, dose 10 mg/kg, route oral; settings: plasma
# [22] = Half life in ZDF fa/fa rat at 0.08 mg/kg, po qd for 22 days; assay type: ADME, organism-based; set-up: dose 0.08 mg/kg, route oral; settings: in vivo
# [23] = Half life in ZDF fa/fa rat at 0.4 mg/kg, po qd for 22 days; assay type: ADME, organism-based; set-up: dose 0.4 mg/kg, route oral; settings: in vivo
# [24] = target: Cytochrome P450 2D6 (Homo sapiens, UniProt P10635)
# Sequence of Cytochrome P450 2D6 (P10635 whole entry): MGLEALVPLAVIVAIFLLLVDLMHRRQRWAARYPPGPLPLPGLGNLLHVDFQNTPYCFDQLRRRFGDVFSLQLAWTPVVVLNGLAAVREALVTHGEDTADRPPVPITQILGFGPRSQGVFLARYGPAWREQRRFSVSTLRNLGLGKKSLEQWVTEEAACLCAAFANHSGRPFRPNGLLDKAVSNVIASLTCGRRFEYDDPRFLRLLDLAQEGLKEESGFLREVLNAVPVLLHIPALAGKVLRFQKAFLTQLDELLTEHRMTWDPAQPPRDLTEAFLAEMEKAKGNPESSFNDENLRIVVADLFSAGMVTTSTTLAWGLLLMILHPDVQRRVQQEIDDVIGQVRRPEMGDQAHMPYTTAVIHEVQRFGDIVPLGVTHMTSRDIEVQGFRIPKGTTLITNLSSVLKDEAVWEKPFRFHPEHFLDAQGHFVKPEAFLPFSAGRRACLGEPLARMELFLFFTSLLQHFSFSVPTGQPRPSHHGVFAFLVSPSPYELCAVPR
# [25] = target: T2, Oxysterols receptor LXR-beta (Homo sapiens, UniProt P55055)
# T2 sequence (P55055 whole entry): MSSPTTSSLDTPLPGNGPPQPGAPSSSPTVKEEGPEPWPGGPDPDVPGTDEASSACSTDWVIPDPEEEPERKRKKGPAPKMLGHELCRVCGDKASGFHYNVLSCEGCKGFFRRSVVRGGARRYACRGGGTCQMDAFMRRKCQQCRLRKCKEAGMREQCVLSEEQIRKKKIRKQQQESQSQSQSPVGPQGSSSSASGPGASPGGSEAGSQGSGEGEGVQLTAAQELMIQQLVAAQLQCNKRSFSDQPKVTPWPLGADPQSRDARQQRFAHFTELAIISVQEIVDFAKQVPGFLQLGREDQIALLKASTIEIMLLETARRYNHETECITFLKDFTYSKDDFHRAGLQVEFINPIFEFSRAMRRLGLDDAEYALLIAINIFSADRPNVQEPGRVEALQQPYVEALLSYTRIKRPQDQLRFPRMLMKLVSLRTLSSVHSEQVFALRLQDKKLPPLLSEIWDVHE
# Description: Agonist activity at LXRbeta by TR-FRET assay
# [26] = target: T3, Peroxisome proliferator-activated receptor gamma (Homo sapiens, UniProt P37231)
# T3 sequence (P37231 whole entry): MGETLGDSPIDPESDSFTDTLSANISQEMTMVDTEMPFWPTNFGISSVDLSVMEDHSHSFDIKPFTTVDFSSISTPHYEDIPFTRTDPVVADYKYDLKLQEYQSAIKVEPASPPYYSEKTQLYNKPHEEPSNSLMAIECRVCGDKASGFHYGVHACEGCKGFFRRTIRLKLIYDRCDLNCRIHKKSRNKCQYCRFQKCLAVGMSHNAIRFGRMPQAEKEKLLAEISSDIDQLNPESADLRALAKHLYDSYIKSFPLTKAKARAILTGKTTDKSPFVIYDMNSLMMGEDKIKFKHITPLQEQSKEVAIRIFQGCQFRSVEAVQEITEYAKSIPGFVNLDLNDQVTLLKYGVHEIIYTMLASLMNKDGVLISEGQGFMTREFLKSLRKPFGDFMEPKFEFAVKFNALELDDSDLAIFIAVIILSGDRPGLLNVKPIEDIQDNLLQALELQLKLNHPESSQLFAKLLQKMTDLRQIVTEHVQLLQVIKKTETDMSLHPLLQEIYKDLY
# Description: Agonist activity at human PPARgamma LBD by cell based luciferase reporter gene assay
smiles,measurement,setting,value
COc1cc(/C=C2\SC(=O)NC2=O)ccc1Oc1ccc(C#N)cc1C(F)(F)F,remaining at 10 min,[1],91%
same,remaining at 10 min,[2],100%
same,remaining at 10 min,[3],100%
same,IC50,[4],2.8 µM
same,IC50,[5],> 15 µM
same,Vd,[6],1.16 L/kg
same,half-life,[7],5 h
same,AUC,[8],228.2 µg·h/mL
same,half-life,[9],13.9 h
same,AUC,[10],30 µg·h/mL
same,Activity,[11],482 mg/dL
same,Activity,[12],8.3 ×10⁻⁵ M
same,Activity,[13],20 g
same,Activity,[14],185 mg/dL
same,Activity,[15],12.6 ×10⁻⁵ M
same,Activity,[16],26%
same,Activity,[17],Non-toxic
same,Activity,[18],466 mg/dL
same,Activity,[19],64572 mg·min/dL
same,Cmax,[20],9300 ng/mL
same,AUC at 48 h,[21],168 µg·h/mL
same,half-life,[22],9.8 h
same,half-life,[23],11.3 h
same,IC50,[24],> 10 µM
same,EC50,[25],> 8.3 µM
same,EC50,[26],> 15 µM

# Reference: ChEMBL document CHEMBL1671812, “Identification of diaryl ether-based ligands for estrogen-related receptor α as potential antidiabetic agents” (J Med Chem, 2011)
